Data from patent publication US8513409B2, “Introverted CB[n] compounds” (University of Maryland, priority 2005, dated 2013).

Columns and labels:
[1] = conc. HCl 100° C., reported by Day and co-workers; cited from earlier work
[2] = Solubility of CB[n] in water, aqueous MeOH, HCl and Na2SO4 solutions; type: physicochemical; conditions: for solubility in 50% aqueous MeOH solution (v/v): 50% aqueous MeOH (v/v)
Description: CB[5]. […] By washing the crude solids repeatedly with large volumes of water a mixture of CB[5] and CB[7] was isolated. […] The solubility of CB[7] is less than 4 mg/mL in this solution. By extracting the solid mixture of CB[5] and CB[7] with 50% aq. MeOH CB[5] is separated from CB[7].
CB[8]. […] By washing the crude mixture of CB[6], CB[8], CB[5]@CB[10], introverted CB[6], and CB[8] with 3 M HCl CB[8] is isolated as an insoluble solid.
Introverted CB[6]. […] Na2SO4 which allows it to be isolated as an insoluble solid by washing and filtration.
Subsequent purification. The separation of each component (CB[5], CB[6], CB[7], CB[8], and iCB[6]) from Crop 1 and Crop 2 was enabled due to their differential solubility in HCl solutions. • CB[5] and CB[7]. […] By washing the crude mixture of CB[6], Cb[8], and iCB[6] with 3.5 M HC1 it is possible to isolate Cb[8] as an insoluble solid. • iCB[6] and CB[6]. CB[6] and iCB[6] were separated by fractional crystallization from different concentration HC1 solutions. For example, the initial CB[6]/iCB[6] mixture was recrystallized from a minimum volume of conc. HC1. The filtrate is enriched in iCB[n]; adding the filtrate to MeOH gives the precipitate which is filtered and dried. The solid now enriched in iCB[6] is recrystallized from 17.5% HC1 which gives CB[6] as a solid and filtrate further enriched in iCB[6]. In this manner, the ratio of iCB[6];CB[6] is raised to ≈80:20. At this point, the mixture is dissolved in a minimum of conc. HC1. To this solution is added enough H2N(CH2)6NH2 to complex all of the CB[6] (≈25%). This solution is then diluted 5-fold with H20. The precipitate is isolated by centrifugation and washed several times with H2O which yields iCB[6] as a white solid in 2% overall yield.

[3] = 1H NMR competition of CB[6] and i-CB[6] (1:1) for guest 1; type: binding; conditions: slight excess of 1 added to CB[6] and i-CB[6] (1:1)
Description: (§1) FIG. 6 illustrates ^1HNMR spectra recorded for: a)) i-CB[6], CB[6] and 1 in a ratio of 1:1:2 (0.5M NaCl), and b) i-CB[7], 1 and 2 in a ratio of 1:1:1 (500 MHz, D2O), RT).
(§2) Because of their smaller cavities and more open portals i-CB[6] and i-CB[7] bind most guest molecules less tightly than their CB[n] counterparts do. For example, when a light excess of 1 is added to a solution containing CB[6] and i-CB[6] Alkyl ammonium ions such as 2 are known to bind tightly to CB[6] with values of Ka in the μM range. In contrast, 2 bind less strongly to i-CB[6] […] Similarly, i-CB[7] retains the ability to bind to guests commonly bound to CB[7]1,8 (e.g. 1.2, and (ferrocenemethyl)trimethylammonium ion (3)) but with lower affinity and higher kinetic liability. The association constants (Ka) for the guests 1, 2, and 3 with i-CB[7] measured by isothermal titration calorimetry (ITC) are (9±1)×10^6 M^−1, (8.8±0.9)×10^5 M^−1, and (2.2±0.1)×10^6 M^−1, respectively, which are 2 to 6 order of magnitude lower than those with CB[7].

[4] = Isothermal titration calorimetry of i-CB[7] with guest 1; type: binding; conditions: ITC, water, 30° C.
Description: as §2
(§3) General. […] Melting points were measured on a Meltemp apparatus in open capillary tubes and are uncorrected. IR spectra were recorded on a Nicolet Magna or on a Perkin Elmer Spectrum GX FT-IR spectrophotometers as KBr pellets and are reported in cm^−1. NMR spectra were measured on a Bruker AM400 or on a Bruker DRX500 spectrometers operating at 400 or 500 MHz for ^1H and 100 or 125 MHz for ^13C. […] The formation constants for the inclusion of several guests in iCB[7] were determined by isothermal titration calorimetry using a VP-ITC instrument from MicroCal. […]

[5] = 1H NMR competition of guests 1 and 2 for i-CB[7]; type: binding; conditions: 1 and 2 in ratio 1:1:1
Description: as §1
For example, i-CB[7] binds aromatic guest 1 more strongly than linear aliphatic guest 2. […] Thus, the inverted glycoluril unit modulates guest binding affinity and rates of dissociation, both of which are of critical importance in the creation of CB[n] based molecular machines.

[6] = Isothermal titration calorimetry of i-CB[7] with guest 3; type: binding; conditions: ITC, water, 30° C.
Description: FIG. 23 is a thermogram (top) and binding isotherm (bottom) of (ferrocenemethyl) trimethyl ammonium in complexing with i-CB[7] at 303K.
Because of their smaller cavities and more open portals i-CB[6] and i-CB[7] bind most guest molecules less tightly than their CB[n] counterparts do. For example, when a light excess of 1 is added to a solution containing CB[6] and i-CB[6] Alkyl ammonium ions such as 2 are known to bind tightly to CB[6] with values of Ka in the μM range. In contrast, 2 bind less strongly to i-CB[6] […] The association constants (Ka) for the guests 1, 2, and 3 with i-CB[7] measured by isothermal titration calorimetry (ITC) are (9±1)×10^6 M^−1, (8.8±0.9)×10^5 M^−1, and (2.2±0.1)×10^6 M^−1, respectively, which are 2 to 6 order of magnitude lower than those with CB[7].
as §3

[7] = Isothermal titration calorimetry of i-CB[7] with guest 2; type: binding; conditions: ITC, water, 30° C.
Description: as §2, §3

[8] = Stability of CB[n] and i-CB[n] on heating in acid (product resubmission); type: physicochemical; conditions: purified compound heated in conc. DCl
Description: The fact that the isomerization of methylene bridged glycoluril dimmers follows mechanism 3 is not only useful in the synthesis of our compounds, but is important for the tailored synthesis of CB[n] and its derivatives. For example, Day and co-workers have recently shown that heating purified CB[8] in conc. […] (Scheme 3). In contrast, pure CB[5], CB[6], and CB[7] are stable under these conditions. […] This type of reaction would likely follow a pathway related to mechanism 1. […] In aqueous acid, it is likely that H2O can compete with the internal N and O nucleophiles of mechanism 3 for the capture of 19 (Scheme 2), effectively forcing fragmentation of the methylene bridges by a variation of mechanism 1. In the absence of competing nucleophiles, under anhydrous acidic conditions, CB[n] (n>8) and derivatives display enhanced stability. This facilitates the preparation of higher CB[n] compounds in a controllable manner when using anhydrous acidic conditions where water-sensitive functional groups are present. If such groups are not present acidic aqueous conditions may be used.
By “anhydrous acidic conditions,” we mean that in initial attempts “standard conditions” (ClCH2CH2Cl, anh. PTSA, reflux) are used, and if solubility problems occur then neat anhydrous PTSA (m.p. 38° C.) and/or CH3SO3H may be used. Based on results, CB[8] is stable to these conditions as depicted in Scheme 3. […]

O=C1N2CN3C(=O)N4CN5C(=O)N6CN7C(=O)N8CN9C(=O)N%10CN1C1C2N2CN%11C(=O)N(CN%12C(=O)N(CN%13C(=O)N(CN%14C(=O)N(CN1C2=O)C%10C9%14)C8C7%13)C6C5%12)C4C3%11 (stereo not drawn) [CB[5]]
stability on heating in conc. HCl [1]: stable
solubility in 50% aqueous MeOH solution (v/v) [2]: about 33 mg/mL
solubility in water [2]: moderate solubility

O=C1N2CN3C(=O)N4CN5C(=O)N6CN7C(=O)N8CN9C(=O)N%10CN%11C(=O)N%12CN1C1C2N2CN%13C(=O)N(CN%14C(=O)N(CN%15C(=O)N(CN%16C(=O)N(CN%17C(=O)N(CN1C2=O)C%12C%11%17)C%10C9%16)C8C7%15)C6C5%14)C4C3%13 (stereo not drawn) [CB[6]]
stability on heating in conc. HCl [1]: stable
solubility in 3 M HCl solution ([2]; 3 M HCl): appreciable solubility
solubility in 3.5 M HCl solution ([2]; 3.5 M HCl): appreciable solubility
share of host that forms a complex with guest 1 [3]: almost all

O=C1N2CN3C(=O)N4CN5C(=O)N6CN7C(=O)N8CN9C(=O)N%10CN%11C(=O)N%12CN%13C(=O)N%14CN1C1C2N2CN%15C(=O)N(CN%16C(=O)N(CN%17C(=O)N(CN%18C(=O)N(CN%19C(=O)N(CN%20C(=O)N(CN1C2=O)C%14C%13%20)C%12C%11%19)C%10C9%18)C8C7%17)C6C5%16)C4C3%15 (stereo not drawn) [CB[7]]
stability on heating in conc. HCl [1]: stable
solubility in 50% aqueous MeOH solution (v/v) [2]: less than 4 mg/mL
solubility in water [2]: moderate solubility

i-CB[7]
association constant (Ka) for guest 1 [4]: (9±1)×10^6 M^−1
guest preference in presence of 1 equiv 1 and 2 [5]: the majority of i-CB[7] forms a complex with 1
association constant (Ka) for guest 3 [6]: (2.2±0.1)×10^6 M^−1
association constant (Ka) for guest 2 [7]: (8.8±0.9)×10^5 M^−1
outcome of heating in conc. DCl [8]: a 4:1 mixture of CB[6], and CB[7] was obtained
